Data from the supplement of paper PMC13380429.

Columns and labels:
Conditions in all cases: 72 h
Caco-2 [1] = assay: cell viability relative to DMSO; higher = less toxic
Calu-3 [2] = assay: as above
HepG2 [3] = assay: as above
U2OS [4] = assay: as above
Vero E6 [5] = assay: as above
Caco-2 [6] = assay: relative viability EC50 (midpoint between 100% and the lowest measured viability); higher = less toxic
Calu-3 [7] = assay: as above
HepG2 [8] = assay: as above
U2OS [9] = assay: as above
Vero E6 [10] = assay: as above
Caco-2 [11] = assay: drug sensitivity score (DSS) for viability; higher = more toxic; extreme values may be limits of the assay
Calu-3 [12] = assay: as above
HepG2 [13] = assay: as above
U2OS [14] = assay: as above
Vero E6 [15] = assay: as above

SMILES | cell viability (Caco-2 [1]; 1 nM) [%] | cell viability (Caco-2 [1]; 10 nM) [%] | cell viability (Caco-2 [1]; 100 nM) [%] | cell viability (Caco-2 [1]; 1000 nM) [%] | cell viability (Caco-2 [1]; 10000 nM) [%] | cell viability (Calu-3 [2]; 1 nM) [%] | cell viability (Calu-3 [2]; 10 nM) [%] | cell viability (Calu-3 [2]; 100 nM) [%] | cell viability (Calu-3 [2]; 1000 nM) [%] | cell viability (Calu-3 [2]; 10000 nM) [%] | cell viability (HepG2 [3]; 1 nM) [%] | cell viability (HepG2 [3]; 10 nM) [%] | cell viability (HepG2 [3]; 100 nM) [%] | cell viability (HepG2 [3]; 1000 nM) [%] | cell viability (HepG2 [3]; 10000 nM) [%] | cell viability (U2OS [4]; 1 nM) [%] | cell viability (U2OS [4]; 10 nM) [%] | cell viability (U2OS [4]; 100 nM) [%] | cell viability (U2OS [4]; 1000 nM) [%] | cell viability (U2OS [4]; 10000 nM) [%] | cell viability (Vero E6 [5]; 1 nM) [%] | cell viability (Vero E6 [5]; 10 nM) [%] | cell viability (Vero E6 [5]; 100 nM) [%] | cell viability (Vero E6 [5]; 1000 nM) [%] | cell viability (Vero E6 [5]; 10000 nM) [%] | relative viability EC50 (Caco-2 [6]) [µM] | relative viability EC50 (Calu-3 [7]) [µM] | relative viability EC50 (HepG2 [8]) [µM] | relative viability EC50 (U2OS [9]) [µM] | relative viability EC50 (Vero E6 [10]) [µM] | drug sensitivity score (Caco-2 [11]) | drug sensitivity score (Calu-3 [12]) | drug sensitivity score (HepG2 [13]) | drug sensitivity score (U2OS [14]) | drug sensitivity score (Vero E6 [15])
CC(=O)N[C@@H](CSC/C=C(\C)CC/C=C(\C)CCC=C(C)C)C(=O)O [acetyl-farnesyl-cysteine] | 92.9 | 98.1 | 100 | 101 | 108 | 108 | 84.9 | 86.6 | 99.9 | 101 | 90.9 | 92.5 | 99.8 | 102 | 105 | 95.7 | 96.9 | 101 | 99 | 101 | 93.9 | 107 | 93 | 99.6 | 101 | > 10 | > 10 | > 10 | > 10 | > 10 | 0 | 0 | 0 | 0 | 0
CCC[S+]([O-])c1ccc2[nH]c(NC(=O)OC)nc2c1 (stereo not given) [albendazole-oxide] | 101 | 98.8 | 96.6 | 101 | 102 | 114 | 104 | 103 | 95.7 | 107 | 107 | 103 | 98 | 106 | 83.7 | 105 | 101 | 101 | 99.6 | 103 | 103 | 104 | 102 | 101 | 94 | > 10 | > 10 | > 10 | > 10 | > 10 | 0 | 0 | 0.2 | 0 | 0
O=C1c2cccc(O)c2C(=O)c2c(O)cc(CO)cc21 [aloe-emodin] | 99.3 | 104 | 98.8 | 92.4 | 91.8 | 93.4 | 92.5 | 103 | 97.8 | 97.6 | 95 | 100 | 90.6 | 105 | 95.2 | 97 | 98 | 98.6 | 96.9 | 102 | 103 | 104 | 101 | 102 | 98.5 | > 10 | > 10 | > 10 | > 10 | > 10 | 0 | 0 | 0 | 0 | 0
CCCN(CCC)C(=O)Cc1c(-c2ccc(Cl)cc2)nc2ccc(Cl)cn12 [alpidem] | 91.5 | 103 | 102 | 104 | 100 | 95.7 | 96.4 | 96.2 | 98.9 | 107 | 92.5 | 94.6 | 96.6 | 102 | 95.1 | 92.6 | 97.4 | 95.9 | 104 | 112 | 102 | 99.6 | 104 | 97.4 | 112 | > 10 | > 10 | > 10 | > 10 | > 10 | 0 | 0 | 0 | 0 | 0
